Experimental data as given in patent publication US20240100012A1, “PHARMACEUTICAL DOSAGE FORM” (priority 2021, published 2024).

Experiments:
[1] = Aqueous solubility of escitalopram base; format: physicochemical; details: crystalline and/or oil forms
[2] = Solubility of escitalopram base in organic solvents; format: physicochemical

aqueous solubility [1]: low aqueous solubility | solubility in organic solvents ([2]; crystalline or oil, organic solvents such as N-Methyl-2-pyrrolidone (NMP) and Dimethyl sulfoxide (DMSO)): extremely high solubility | escitalopram content of solutions that can be prepared in organic solvents ([2]; oil forms of escitalopram base, organic solvents): more than 70 % wt
SMILES: CN(C)CCC[C@@]1(c2ccc(F)cc2)OCc2cc(C#N)ccc21 [escitalopram base, S-1-[3-(dimethylamino)propyl]-1-(4-fluorophenyl)-1,3-dihydro-5-isobenzofurancarbonitrile]
